{"source": "paper PMC10244169", "about": "“Psychedelics promote plasticity by directly binding to BDNF receptor TrkB” (Nature Neuroscience, 2023)", "key": {"[1]": {"tested_on": "TrkA.TM chimera", "assay": "^3H-LSD saturation binding, TrkB with TMD of TrkA", "conditions": "TMD of TrkB replaced by that of TrkA", "description": "(§1) Binding assays were performed as previously described with minor modifications. […] Samples from mouse embryo (E18) brains were also lysed, vortexed, sonicated and centrifuged for binding assays. Plates were then washed with PBS. […] For the competition binding assays with biotinylated R,R-HNK, the amino-biotinylation of R,R-HNK was performed using a commercial kit (Thermo Scientific, EZ-Link NHS-PEG4 Biotinylation Kit, 21455) and the reaction monitored by MS. A mixture of biotinylated R,R-HNK (10 µM) and unlabeled compounds (1 pM to 10 µM) in PBS was added to the 96-well plates containing the immunoprecipitated TrkB and incubated for 1 h at room temperature. […] Luminescence was determined via streptavidin conjugated with horseradish peroxidase (HRP; Thermo Fisher Scientific, 21126; 1:5,000, 1 h at room temperature) in reaction with the Pierce ECL substrate (Thermo Fisher Scientific, 32106). Luminescence from blank wells that contained all reagents but the sample lysates was used to determine nonspecific binding. To obtain the binding curves, results from binding assays were fitted to the equation of specific binding with Hill slope from GraphPad Prism 9.2. To calculate koff values, results were fitted to the equation of dissociation of one phase exponential decay from GraphPad Prism 9.2."}, "[2]": {"target": "T1, human TrkB (Homo sapiens, UniProt Q16620)", "T1 construct": "GFP; expressed in transfected cells; host or cells: HEK293T", "T1 sequence (Q16620 32-822)": "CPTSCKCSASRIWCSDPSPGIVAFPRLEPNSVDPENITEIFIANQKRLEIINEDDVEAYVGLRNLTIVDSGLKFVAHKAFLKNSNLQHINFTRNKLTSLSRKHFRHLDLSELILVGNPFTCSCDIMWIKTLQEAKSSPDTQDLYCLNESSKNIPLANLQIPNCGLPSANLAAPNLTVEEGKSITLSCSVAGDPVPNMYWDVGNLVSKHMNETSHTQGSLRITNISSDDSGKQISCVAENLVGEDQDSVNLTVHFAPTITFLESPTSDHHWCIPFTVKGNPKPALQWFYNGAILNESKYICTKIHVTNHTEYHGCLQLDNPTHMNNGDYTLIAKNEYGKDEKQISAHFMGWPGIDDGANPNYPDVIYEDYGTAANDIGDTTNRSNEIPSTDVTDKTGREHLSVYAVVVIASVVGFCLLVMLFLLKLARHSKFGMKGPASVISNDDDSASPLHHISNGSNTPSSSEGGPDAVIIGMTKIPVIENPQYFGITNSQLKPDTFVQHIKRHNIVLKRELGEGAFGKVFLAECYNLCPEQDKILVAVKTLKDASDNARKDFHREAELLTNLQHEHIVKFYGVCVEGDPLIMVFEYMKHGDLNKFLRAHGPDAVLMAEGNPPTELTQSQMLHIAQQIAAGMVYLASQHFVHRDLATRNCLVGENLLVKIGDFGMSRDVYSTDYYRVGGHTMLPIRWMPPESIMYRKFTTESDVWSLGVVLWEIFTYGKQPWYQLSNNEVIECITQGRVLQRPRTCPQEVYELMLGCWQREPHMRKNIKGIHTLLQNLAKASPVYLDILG", "assay": "^3H-LSD saturation binding to TrkB immunoprecipitated from HEK293T lysates", "description": "as §1"}, "[3]": {"target": "T2, rat TrkB (WT) (Rattus norvegicus, UniProt Q63604)", "T2 construct": "expressed in transfected cells; host or cells: HEK293T", "T2 sequence (Q63604 32-821)": "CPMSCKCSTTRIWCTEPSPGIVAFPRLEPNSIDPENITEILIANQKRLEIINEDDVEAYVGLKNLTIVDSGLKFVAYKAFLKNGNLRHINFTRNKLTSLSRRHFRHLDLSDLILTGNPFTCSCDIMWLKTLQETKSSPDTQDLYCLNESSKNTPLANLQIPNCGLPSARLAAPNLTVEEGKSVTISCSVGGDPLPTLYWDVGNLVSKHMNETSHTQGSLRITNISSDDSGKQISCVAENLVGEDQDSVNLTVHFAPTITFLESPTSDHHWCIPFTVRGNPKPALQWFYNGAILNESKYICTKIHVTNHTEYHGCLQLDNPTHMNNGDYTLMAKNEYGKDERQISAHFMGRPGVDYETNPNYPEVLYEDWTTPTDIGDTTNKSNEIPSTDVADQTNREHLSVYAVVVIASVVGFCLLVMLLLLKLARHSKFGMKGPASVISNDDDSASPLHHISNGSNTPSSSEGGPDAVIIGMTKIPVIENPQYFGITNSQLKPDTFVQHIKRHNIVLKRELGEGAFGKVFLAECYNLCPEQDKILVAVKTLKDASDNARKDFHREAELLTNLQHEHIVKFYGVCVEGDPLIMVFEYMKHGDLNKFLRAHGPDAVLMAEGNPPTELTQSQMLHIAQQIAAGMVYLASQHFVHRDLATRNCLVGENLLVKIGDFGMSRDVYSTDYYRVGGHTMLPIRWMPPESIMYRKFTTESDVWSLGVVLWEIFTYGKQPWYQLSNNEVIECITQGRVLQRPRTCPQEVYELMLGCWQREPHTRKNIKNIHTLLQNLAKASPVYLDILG", "assay": "^3H-LSD saturation binding to TrkB immunoprecipitated from HEK293T lysates", "description": "as §1"}, "[4]": {"target": "T3, TrkB WT (Rattus norvegicus, UniProt Q63604)", "T3 construct": "expressed in transfected cells; host or cells: HEK293T", "T3 sequence (Q63604 32-821)": "as above", "assay": "Radioligand dissociation binding of ^3H-LSD", "conditions": "ext fig 1c, n=3", "description": "as §1"}, "[5]": {"target": "T4, TrkB Y433F (Rattus norvegicus, UniProt Q63604, Y433F)", "T4 construct": "expressed in transfected cells; host or cells: HEK293T", "T4 sequence (Q63604 32-821 Y433F)": "as the sequence (Q63604 32-821) above, with Y402F counted along it", "assay": "Radioligand dissociation binding of ^3H-LSD", "conditions": "ext fig 1c, n=3", "description": "as §1"}, "[6]": {"tested_on": "mice", "assay": "Contextual fear conditioning, extinction and fear reinstatement (incl. baseline locomotor activity)", "format": "in vivo, mouse", "conditions": "for Mean, figure 7k (contextual fear conditioning) / Mean, figure 7i (contextual fear conditioning) / Mean, figure 7j (contextual fear conditioning): LSD group; for Mean Diff., ext fig 7e: e7e; for Mean Diff., ext fig 7f: e7f; for Mean Diff., ext fig 7o: e7o, Bonferroni's multiple comparisons test", "description": "Male WT mice (C57BL/6JRccHsd, Envigo) were used for contextual fear conditioning experiments with and without extinction training as previously described[11],[34] with modifications. Briefly, animals were conditioned in context A (metallic bar flooring, transparent Plexiglass walls, 23 × 23 × 35 cm arena) with a series of five scrambled foot shocks (0.6 mA, 2 s) along a 480 s session. […] During the following 3 days, mice were exposed to extinction training in context A for 480 s every 24 h or placed for the same duration and number of sessions in context B (black planar floor, black nontransparent walls, 23 × 23 × 35 cm arena), which we categorized as extinction and no extinction trainings, respectively. Afterwards, animals were placed back into their home cage and left undisturbed for 3 weeks. Finally, all mice were reconditioned with a new set of five scrambled foot shocks (0.6 mA, 2 s) along a 480 s session in context A, and their fear reinstatement response was measured 24 h later for the same duration also in context A. All sessions were conducted under constant illumination (100 lux). For the contextual fear conditioning and fear reinstatement experiment with male WT and Y433F^+/−, we used the same protocol as for animals undergoing extinction training in context A above. Baseline freezing was established during the first conditioning session. Movement was measured by infrared beams placed on the sides of the conditioning chamber, and freezing was automatically determined by the fear conditioning apparatus and software (TSE Systems) and expressed as the percentage of time spent freezing."}, "[7]": {"tested_on": "Ntrk2 mRNA", "assay": "RT–qPCR of Ntrk2 mRNA in cortical neurons", "conditions": "after LSD treatment"}, "[8]": {"target": "T5, TrkB:PLCγ1 (Rattus norvegicus, UniProt Q63604)", "T5 construct": "endogenous in cells; host or cells: rat cortical neuronal cultures (E18, DIV21)", "T5 sequence (Q63604 32-821)": "as the sequence (Q63604 32-821) above", "assay": "ELISA of TrkB:PLCγ1 interaction in neuronal cultures", "format": "cell-based", "description": "The phosphorylation of TrkB (pY816) and interaction with PLCγ1 were assessed by enzyme-linked immunosorbent assay (ELISA) as previously described[11],[80],[81] with minor modifications. Briefly, white 96-well plates (PerkinElmer, OptiPlate 96F-HB) were precoated with goat anti-TrkB (R&D systems, AF1494; 1:500, overnight, 4 °C) antibody in carbonate buffer (pH 9.8) and blocked with 3% BSA in PBS with 0.1% Tween-20 (PBS-T) for 2 h at room temperature. […] Samples were incubated overnight at 4 °C, and 24 h later plates were washed with PBS-T and incubated with either rabbit anti-phospho-TrkB(Tyr816) (Cell Signaling Technology, 4168S; 1:2,000), rabbit anti-PLCγ1 (Cell Signaling Technologies, 5690S; 1:2,000) or rabbit anti-Trk (Cell Signaling Technologies, 92991; 1:2,000) antibodies overnight at 4 °C. After washing with PBS-T, plates were incubated with HRP-conjugated goat anti-rabbit (Bio-Rad, 170–5046; 1:5,000, 1 h, room temperature) antibody, followed by more washing with PBS-T. Finally, the chemiluminescent signal was read after brief incubation with Pierce ECL substrate (Thermo Fisher Scientific, 32106). Luminescence from blank wells that contained all reagents but the sample lysates was used to determine background signal."}, "[9]": {"conditions": "WT:Saline vs. WT:LSD, uncorrected Fisher's LSD"}, "[10]": {"conditions": "Y433F+/-:Saline vs. Y433F+/-:LSD, uncorrected Fisher's LSD"}, "[11]": {"conditions": "WT mice, saline minus LSD, uncorrected Fisher's LSD"}, "[12]": {"conditions": "Y433F+/- mice, saline minus LSD, uncorrected Fisher's LSD"}, "[13]": {"conditions": "means over WT and Y433F+/- mice"}}, "data": [{"smiles": "CCN(CC)C(=O)C1C=C2c3cccc4[nH]cc(c34)CC2N(C)C1", "note": "(stereo not drawn) [LSD, lysergic acid diethylamide]", "values": [{"measurement": "LSD binding", "setting": "[1]", "result": "completely abolishes LSD binding"}, {"measurement": "Kd", "setting": "[2]", "result": "0.93 ± 0.414", "unit": "nM"}, {"measurement": "Bmax", "setting": "[2]; ^3H-LSD saturation, human TrkB", "result": "4.028 ± 0.326", "unit": "pmol mg^−1 protein"}, {"measurement": "Bmax (specific binding with Hill slope, best-fit)", "setting": "[2]; ext fig 1a, TRKB.wt, n=2", "result": 111.1}, {"measurement": "h (Hill slope, best-fit)", "setting": "[2]; ext fig 1a, TRKB.wt, n=2", "result": 0.4722}, {"measurement": "Kd", "setting": "[3]", "result": "0.656 ± 0.093", "unit": "nM"}, {"measurement": "h (best-fit, 1a)", "setting": "[3]; WT, Hill slope", "result": 1.255}, {"measurement": "Bmax (best-fit, 1a)", "setting": "[3]; WT, specific binding with Hill slope", "result": 100.9}, {"measurement": "Bmax", "setting": "[3]; ^3H-LSD saturation, rat TrkB", "result": "3.053 ± 0.099", "unit": "pmol mg^−1 protein"}, {"measurement": "K (dissociation, one phase exponential decay)", "setting": "[4]", "result": 0.008532}, {"measurement": "NS (dissociation, one phase exponential decay)", "setting": "[4]", "result": 2.667}, {"measurement": "Y0 (dissociation, one phase exponential decay)", "setting": "[4]", "result": 110.7}, {"measurement": "K (dissociation, one phase exponential decay)", "setting": "[5]", "result": 0.02402}, {"measurement": "NS (dissociation, one phase exponential decay)", "setting": "[5]", "result": 6.951}, {"measurement": "Y0 (dissociation, one phase exponential decay)", "setting": "[5]", "result": 108.1}, {"measurement": "Mean Diff., Fig. 7i", "setting": "[6]; [9]", "result": 14.87}, {"measurement": "Mean Diff., Fig. 7i", "setting": "[6]; [10]", "result": -1.67}, {"measurement": "Mean Diff., Fig. 7j", "setting": "[6]; [9]", "result": 16.98}, {"measurement": "Mean Diff., Fig. 7j", "setting": "[6]; [10]", "result": -1.138}, {"measurement": "Mean Diff., Fig. 7k", "setting": "[6]; Ext.:Saline vs. Ext.:LSD, uncorrected Fisher's LSD", "result": 21.67}, {"measurement": "Mean Diff., Fig. 7k", "setting": "[6]; No ext.:Saline vs. No ext.:LSD, uncorrected Fisher's LSD", "result": 7.778}, {"measurement": "Mean, figure 7k (contextual fear conditioning)", "setting": "[6]; Ext. (extinction training)", "result": 20.42}, {"measurement": "Mean Diff., figure 7k, Ext.:Saline vs. Ext.:LSD", "setting": "[6]; Ext., saline minus LSD, uncorrected Fisher's LSD", "result": 21.67}, {"measurement": "fear extinction without extinction training", "setting": "[6]; LSD alone, no extinction training", "result": "does not bring about fear extinction"}, {"measurement": "Mean, figure 7k (contextual fear conditioning)", "setting": "[6]; No ext.", "result": 44.56}, {"measurement": "Mean Diff., figure 7k, No ext.:Saline vs. No ext.:LSD", "setting": "[6]; No ext., saline minus LSD, uncorrected Fisher's LSD", "result": 7.778}, {"measurement": "contextual extinction of conditioned fear response", "setting": "[6]; WT mice, 72 h after single administration, persists at least 4 weeks, with extinction training", "result": "facilitates contextual extinction of conditioned fear response"}, {"measurement": "Mean, figure 7i (contextual fear conditioning)", "setting": "[6]; WT mice", "result": 20.6}, {"measurement": "Mean, figure 7j (contextual fear conditioning)", "setting": "[6]; WT mice", "result": 39.47}, {"measurement": "Mean Diff., figure 7i, WT:Saline vs. WT:LSD", "setting": "[6]; [11]", "result": 14.87}, {"measurement": "Mean Diff., figure 7j, WT:Saline vs. WT:LSD", "setting": "[6]; [11]", "result": 16.98}, {"measurement": "Mean, figure 7i (contextual fear conditioning)", "setting": "[6]; Y433F+/- mice", "result": 34.18}, {"measurement": "Mean, figure 7j (contextual fear conditioning)", "setting": "[6]; Y433F+/- mice", "result": 54.05}, {"measurement": "Mean Diff., figure 7i, Y433F+/-:Saline vs. Y433F+/-:LSD", "setting": "[6]; [12]", "result": -1.67}, {"measurement": "Mean Diff., figure 7j, Y433F+/-:Saline vs. Y433F+/-:LSD", "setting": "[6]; [12]", "result": -1.138}, {"measurement": "contextual extinction of conditioned fear response", "setting": "[6]; Y433F^+/− mice", "result": "these short- and long-term effects are lost"}, {"measurement": "Mean Diff., ext fig 7e", "setting": "[6]; [9]", "result": -2.065}, {"measurement": "Mean Diff., ext fig 7e", "setting": "[6]; [10]", "result": -2.882}, {"measurement": "Mean Diff., ext fig 7f", "setting": "[6]; [9]", "result": -1.252}, {"measurement": "Mean Diff., ext fig 7f", "setting": "[6]; [10]", "result": -6.692}, {"measurement": "Mean Diff., ext fig 7o", "setting": "[6]; Ext.:Saline vs. Ext.:LSD", "result": 6.343}, {"measurement": "Mean Diff., ext fig 7o", "setting": "[6]; No ext.:Saline vs. No ext.:LSD", "result": -0.7639}, {"measurement": "Predicted (LS) mean of LSD, figure 7i", "setting": "[6]; mean over WT and Y433F+/- mice", "result": 27.39}, {"measurement": "Predicted (LS) mean of LSD, figure 7j", "setting": "[6]; mean over WT and Y433F+/- mice", "result": 46.76}, {"measurement": "Difference between predicted means (Saline - LSD), figure 7i", "setting": "[6]; [13]", "result": 6.598}, {"measurement": "Difference between predicted means (Saline - LSD), figure 7j", "setting": "[6]; [13]", "result": 7.923}, {"measurement": "Ntrk2 mRNA levels", "setting": "[7]", "result": "without any changes in Ntrk2 mRNA levels"}, {"measurement": "TrkB interaction with PLCγ1", "setting": "[8]", "result": "increases TrkB interaction with phospholipase C gamma 1 (PLCγ1)"}]}]}
